Laboratory results as given in patent US10323022B2, “Pyrrolidinyl urea, pyrrolidinyl thiourea and pyrrolidinyl guanidine compounds as TrkA kinase inhibitors” (Array BioPharma Inc., priority 2011, dated 2019).
Structures can show the parent of a compound that is named as a salt.

The compounds below were run against TrkA (Homo sapiens (Human), UniProt P04629) (assay: TrkA Omnia Assay). Details: averaged IC50; 20 nM enzyme, 500 μM ATP, 10 μM peptide substrate.
Assay type: biochemical
Procedure, shortened: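 Continuous fluorescent kinase read-out (ex 360 nm, em 485 nm) over 70 min, with initial rates fitted to 4- or 5-parameter logistic curves for IC50. Final conditions: 500 μM ATP, 10 μM Omnia Tyr Peptide #4, 20 nM TrkA, MOPS pH 7.5 buffer with MgCl2 and Triton X-100; enzyme and compound preincubated 10 min at ambient temperature.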

Chain of TrkA (P04629 33-796): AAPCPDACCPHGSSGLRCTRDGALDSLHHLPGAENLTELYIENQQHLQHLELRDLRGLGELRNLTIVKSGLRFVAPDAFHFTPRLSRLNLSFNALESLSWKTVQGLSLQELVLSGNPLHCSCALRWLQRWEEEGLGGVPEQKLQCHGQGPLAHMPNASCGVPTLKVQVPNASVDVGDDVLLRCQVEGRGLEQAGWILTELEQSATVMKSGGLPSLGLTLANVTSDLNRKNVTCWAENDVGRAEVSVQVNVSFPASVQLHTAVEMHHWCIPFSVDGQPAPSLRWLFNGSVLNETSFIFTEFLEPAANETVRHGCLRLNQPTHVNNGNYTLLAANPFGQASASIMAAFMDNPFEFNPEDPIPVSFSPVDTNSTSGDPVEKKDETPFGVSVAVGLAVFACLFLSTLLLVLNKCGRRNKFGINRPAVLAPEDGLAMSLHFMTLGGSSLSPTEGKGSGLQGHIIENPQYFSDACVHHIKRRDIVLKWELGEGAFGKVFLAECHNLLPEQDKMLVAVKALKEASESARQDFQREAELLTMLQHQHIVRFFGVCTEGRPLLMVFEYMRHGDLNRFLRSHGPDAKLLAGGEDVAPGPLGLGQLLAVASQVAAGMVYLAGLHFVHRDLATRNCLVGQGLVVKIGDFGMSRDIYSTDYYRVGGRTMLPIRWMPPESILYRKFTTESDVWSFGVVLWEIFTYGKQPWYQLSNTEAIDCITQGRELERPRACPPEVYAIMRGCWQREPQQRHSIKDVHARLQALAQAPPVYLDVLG

| Structure (SMILES) | IC50 |
| --- | --- |
| COCCN1C[C@@H](NC(=O)Nc2c(C)c(OCCNS(C)(=O)=O)nn2-c2ccccc2)[C@H](c2ccc(F)c(F)c2)C1 [Example 544, N-(2-((5-(3-((3S,4R)-4-(3,4-difluorophenyl)-1-(2-methoxyethyl)pyrrolidin-3-yl)ureido)-4-methyl-1-phenyl-1H-pyrazol-3-yl)oxy)ethyl)methanesulfonamide] | < 100 nM |
| COCCN1C[C@@H](NC(=O)Nc2c(C)c(OCCNC(C)=O)nn2-c2ccccc2)[C@H](c2ccc(F)c(F)c2)C1 [Example 545, N-(2-((5-(3-((3S,4R)-4-(3,4-difluorophenyl)-1-(2-methoxyethyl)pyrrolidin-3-yl)ureido)-4-methyl-1-phenyl-1H-pyrazol-3-yl)oxy)ethyl)acetamide] | < 100 nM |
| COCCN1C[C@@H](NC(=O)Nc2c(C)c(OCCN3CCN(C(C)=O)CC3)nn2-c2ccccc2)[C@H](c2ccc(F)c(F)c2)C1 [Example 546, 1-(3-(2-(4-acetylpiperazin-1-yl)ethoxy)-4-methyl-1-phenyl-1H-pyrazol-5-yl)-3-((3S,4R)-4-(3,4-difluorophenyl)-1-(2-methoxyethyl)pyrrolidin-3-yl)urea] | < 100 nM |
| COCCN1C[C@@H](NC(=O)Nc2c(C)c(OCC(N)=O)nn2-c2ccccc2)[C@H](c2ccc(F)c(F)c2)C1 [Example 547, 2-((5-(3-((3S,4R)-4-(3,4-difluorophenyl)-1-(2-methoxyethyl)pyrrolidin-3-yl)ureido)-4-methyl-1-phenyl-1H-pyrazol-3-yl)oxy)acetamide] | < 100 nM |
| CCOc1nn(-c2ccccc2)c(NC(=O)N[C@@H]2CN(CCOC)C[C@H]2c2ccc(F)c(F)c2)c1NC(=O)C(F)(F)F [Example 548, N-(5-(3-((3S,4R)-4-(3,4-difluorophenyl)-1-(2-methoxyethyl)pyrrolidin-3-yl)ureido)-3-ethoxy-1-phenyl-1H-pyrazol-4-yl)-2,2,2-trifluoroacetamide] | 100 to 1000 nM |
| CCOc1nn(-c2ccccc2)c(NC(=O)N[C@@H]2CN(CCOC)C[C@H]2c2ccc(F)c(F)c2)c1N [Example 549, 1-(4-amino-3-ethoxy-1-phenyl-1H-pyrazol-5-yl)-3-((3S,4R)-4-(3,4-difluorophenyl)-1-(2-methoxyethyl)pyrrolidin-3-yl)urea] | < 100 nM |
| CCOc1nn(-c2ccccc2)c(NC(=O)N[C@@H]2CN(CCOC)C[C@H]2c2ccc(F)c(F)c2)c1CCO [Example 550, 1-((3S,4R)-4-(3,4-difluorophenyvl)-1-(2-methoxyethyl)pyrrolidin-3-yl)-3-(3-ethoxy-4-(2-hydroxyethyl)-1-phenyl-1H-pyrazol-5-yl)urea] | < 100 nM |
| COCCN1C[C@@H](NC(=O)Nc2c(C)c(OCCN3CCN(C)CC3)nn2-c2ccccc2)[C@H](c2ccc(F)c(F)c2)C1 [Example 551, 1-((3S,4R)-4-(3,4-difluorophenyl)-1-(2-methoxyethyl)pyrrolidin-3-yl)-3-(4-methyl-3-(2-(4-methylpiperazin-1-yl)ethoxy)-1-phenyl-1H-pyrazol-5-yl)urea trihydrochloride] | < 100 nM |

Results, then the compound that gave them:

| IC50 | Structure (SMILES) |
| --- | --- |
| < 100 nM | COCCN1C[C@@H](NC(=O)Nc2c(C)c(OCC(=O)N3CCOCC3)nn2-c2ccccc2)[C@H](c2ccc(F)c(F)c2)C1 [Example 552, 1-((3S,4R)-4-(3,4-difluorophenyvl)-1-(2-methoxyethyl)pyrrolidin-3-yl)-3-(4-methyl-3-(2-morpholino-2-oxoethoxy)-1-phenyl-1H-pyrazol-5-yl)urea] |
| 100 to 1000 nM | COCCN1C[C@@H](NC(=O)Nc2c(Br)c(C(=O)O)nn2-c2ccccc2)[C@H](c2ccc(F)c(F)c2)C1 [Example 553, 4-bromo-5-(3-((3S,4R)-4-(3,4-difluorophenyl)-1-(2-methoxyethyl)pyrrolidin-3-yl)ureido)-1-phenyl-1H-pyrazole-3-carboxylic acid] |
| < 100 nM | CNC(=O)c1nn(-c2ccccc2)c(NC(=O)N[C@@H]2CN(CCOC)C[C@H]2c2ccc(F)c(F)c2)c1Br [Example 554, 4-bromo-5-(3-((3S,4R)-4-(3,4-difluorophenyl)-1-(2-methoxyethyl)pyrrolidin-3-yl)ureido)-N-methyl-1-phenyl-1H-pyrazole-3-carboxamide] |
| < 100 nM | COCCN1C[C@@H](NC(=O)Nc2c(Br)c(C(=O)NOC)nn2-c2ccccc2)[C@H](c2ccc(F)c(F)c2)C1 [Example 555, 4-bromo-5-(3-((3S,4R)-4-(3,4-difluorophenyl)-1-(2-methoxyethyl)pyrrolidin-3-yl)ureido)-N-methoxy-1-phenyl-1H-pyrazole-3-carboxamide] |
| < 100 nM | COCCN1C[C@@H](NC(=O)Nc2c(Cl)c(-c3cnn(CCOC)c3)nn2-c2ccccc2)[C@H](c2ccc(F)c(F)c2)C1 [Example 556, 1-(4-chloro-1′-(2-methoxyethyl)-1-phenyl-1H, 1′H-[3,4′-bipyrazol]-5-yl)-3-((3S,4R)-4-(3,4-difluorophenyl)-1-(2-methoxyethyl)pyrrolidin-3-yl)urea] |
| < 100 nM | COCCN1C[C@@H](NC(=O)Nc2c(C)c(OC[C@@H](O)CO)nn2-c2ccccc2)[C@H](c2cc(F)cc(F)c2)C1 [Example 557, 1-((3S,4R)-4-(3,5-difluorophenyl)-1-(2-methoxyethyl)pyrrolidin-3-yl)-3-(3-((S)-2,3-dihydroxvpropoxy)-4-methyl-1-phenyl-1H-pyrazol-5-yl)urea] |
| < 100 nM | COCCN1C[C@@H](NC(=O)Nc2c(C)c(OC[C@H](O)CO)nn2-c2ccccc2)[C@H](c2cc(F)cc(F)c2)C1 [Example 558, 1-((3S,4R)-4-(3,5-difluorophenyl)-1-(2-methoxyethyl)pyrrolidin-3-yl)-3-(3-((R)-2,3-dihydroxypropoxy)-4-methyl-1-phenyl-1H-pyrazol-5-yl)urea] |
| < 100 nM | COCCN1C[C@@H](NC(=O)Nc2c(C)c(OC[C@H](O)CO)nn2-c2ccccc2)[C@H](c2cc(F)c(F)c(F)c2)C1 [Example 559, 1-(3-((R)-2,3-dihydroxvpropoxy)-4-methyl-1-phenyl-1H-pyrazol-5-yl)-3-((3S,4R)-1-(2-methoxyethyl)-4-(3,4,5-trifluorophenyl)pyrrolidin-3-yl)urea] |
| < 100 nM | COCCN1C[C@@H](NC(=O)Nc2c(C)c(OC[C@@H](O)CO)nn2-c2ccccc2)[C@H](c2cc(F)c(F)c(F)c2)C1 [Example 560, 1-(3-((S)-2,3-dihydroxvpropoxy)-4-methyl-1-phenyl-1H-pyrazol-5-yl)-3-((3S,4R)-1-(2-methoxyethyl)-4-(3,4,5-trifluorophenyl)pyrrolidin-3-yl)urea] |
| < 100 nM | COCCN1C[C@@H](NC(=O)Nc2c(C)c(OC[C@H](C)O)nn2-c2ccccc2)[C@H](c2cc(F)c(F)c(F)c2)C1 [Example 561, 1-(3-((S)-2-hydroxypropoxy)-4-methyl-1-phenyl-1H-pyrazol-5-yl)-3-((3S,4R)-1-(2-methoxyethyl)-4-(3,4,5-trifluorophenyl)pyrrolidin-3-yl)urea] |
| < 100 nM | COCCN1C[C@@H](NC(=O)Nc2c(C)c(OC[C@@H](O)COC)nn2-c2ccccc2)[C@H](c2ccc(F)c(F)c2)C1 [Example 562, 1-((3S,4R)-4-(3,4-difluorophenyl)-1-(2-methoxyethyl)pyrrolidin-3-yl)-3-(3-((S)-2-hydroxy-3-methoxypropoxy)-4-methyl-1-phenyl-1H-pyrazol-5-yl)urea] |
